Results as given in patent US7102000B2, “Heterocyclic amide derivatives for the treatment of diabetes and other diseases” (Incyte San Diego Inc., priority 2002, dated 2006).

Columns and labels:
[1] = system: KKA^y mice; assay: Oral treatment of type 2 diabetes in KKA^y mice (serum glucose, triglyceride, cholesterol); type: in vivo, mouse; conditions: KKA^y mice, oral once daily, vs control mice, FIGS. 2a–d
Excerpt: The procedure for this in-vivo assay for anti-diabetes activity was described in detail by Iwatsuka, et al. (1970 General Survey of Diabetic Features of Yellow KK Mice. Endocrinol. Japon. 17: 23–35, incorporated herein in its entirety by reference).
Experimental Procedures: Six to eight week-old male KKA^y mice (obtained from Jackson Labs of Bar Harbord, Me.) were housed in a fixed 12–12-hr artificial light-dark cycle, and maintained on a standard rodent diet provided ad libitum. Animals were allowed two days to acclimate in this experimental environment prior to the initiation of the study.
Prior to initiation of treatment with the compounds of the invention, the animals were bled from the tail vein (100–200 μL of whole blood) and serum levels of glucose and triglycerides were measured in duplicate (Trinder kits; Sigma, St. Louis, Mo.). Based on these initial measures, animals were sorted into groups with approximately the same average serum glucose levels. Once sorted, the animals were housed one per cage and provided rodent diet ad libitum. Unless otherwise indicated, compounds were suspended in sesame oil, and administered by oral gavage once daily to animals in a volume of 3 ml/kg/dose.
Treatment Group A (n=5/group): (See Results in FIG. 2a) • 1) KKA^y vehicle control (sesame oil) • 2) Compound 1 (3 mg/kg) • 3) Compound 1 (10 mg/kg) • 4) Compound 2 (3 mg/kg) • 5) Compound 2 (10 mg/kg)
Treatment Group B (n=6/group): (See Results in FIG. 2b) • 1) KKA^y vehicle control (sesame oil) • 2) Compound 11 (15 mg/kg)
Treatment Group C (n=6/group): (See Results in FIG. 2c) • 1) KKA^y vehicle control (sesame oil) • 2) Compound 13 (15 mg/kg)
Treatment Group D (n=6/group): (See Results in FIG. 2d) • 1) KKA^y vehicle control (CMC) • 2) Compound 25 (3 mg/kg, CMC) Compound 25 was suspended in a solution of carboxymethyl cellulose (CMC; 1% carboxy methyl cellulose in H2O, with 10% polyethelene glycol 400), and administered to animals in a volume of 5 ml/kg/dose.
Treatment Group E (n=5/group): (See Results in FIG. 2e) • 1) KKA^y vehicle control (10% HPβCD) • 2) Compound 25 (1 mg/kg) • 3) Compound 25 (3 mg/kg) • 4) Compound 25 (10 mg/kg) Compound 25 was dissolved in a 10% hydroxy propyl beta cyclodextrin solution, and administered to animals in a volume of 10 ml/kg/dose.
Serum glucose, triglyceride and/or cholesterol levels were measured in duplicate. The blood is kept at room temperature to allow coagulation, after which the serum is separated and assayed for glucose, triglyceride and/or cholesterol levels. As shown in FIGS. 2a–2d all of the compounds tested reduced serum glucose and triglyceride levels, some with doses as low as 3 mg/kg when administered once a day.

[2] = system: diet-induced hypercholesterolemic Sprague Dawley rats; assay: Diet-induced hypercholesterolemia in wild type Sprague Dawley rats (total, HDL, LDL cholesterol); type: in vivo, rat; conditions: Sprague Dawley rats on atherogenic diet, oral once daily, day 5, FIGS. 5a–c
Excerpt: Experimental Procedure: Six week-old male Sprague Dawley rats (obtained from Harlan of San Diego, Calif.) were housed in a fixed 12—12-hr artificial light-dark cycle, and maintained on a high cholesterol atherogenic diet (Paigen's Diet, obtained from Research Diet Inc. of New Brounswick, N.J.) was provided ad libitum. Animals were allowed six days to acclimate in this experimental environment prior to the initiation of the study.
Prior to initiation of treatment, the animals were bled from the tail vein (100–200 μL of whole blood) and serum levels of cholesterol were measured in duplicate (Cholesterol Infinity kits; Sigma, St. Louis, Mo.). Based on these initial measures, animals were sorted into groups with approximately the same average total cholesterol levels. Once sorted, the animals were housed three per cage and maintained on Paigen's diet ad libitum. All compounds to be tested were suspended in sesame oil and administered in a final volume of 3 ml/kg. Drug is administered by oral gavage once daily at the beginning of the artificial light cycle. To obtain a base line for lipid measurement, a control group maintained on standart rodent diet is included (lean control).
Treatment Group A (n=6/group): (See Results in FIG. 5a) • 1) Lean control (Sesame Oil) • 2) Control • 3) Compound 2 (0.3 mg/kg) • 4) Compound 2 (1 mg/kg) • 5) Compound 2 (3 mg/kg)
Treatment Group B (n=6/group): (See Results in FIG. 5b) • 1) Lean control (Sesame Oil) • 2) Control • 3) Compound 6 (3 mg/kg)
Treatment Group C (n=6/group): (See Results in FIG. 5c) • 1) Lean control (10% HPβCD) • 2) Control • 3) Compound 25 (1 mg/kg) • 4) Compound 25 (3 mg/kg) • 5) Compound 25 (10 mg/kg) • 6) Compound 25 (15 mg/kg) • The compounds were dissolved in a 10% hydroxy propyl beta cyclodextrin solution, and administered to animals in a volume of 10 ml/kg/dose.
To monitor the effect of the tested compounds, animals were bled from the tail vein at the end of the dark cycle on days 0 (for sorting) and day 5 of the treatment period. Fed serum cholesterol levels were measured in duplicate. The blood is kept at room temperature to allow coagulation, after which the serum is separated and assayed for total cholesterol (Infinity reagent, Sigma), HDL cholesterol (using HDL precipitating reagent and infinity reagent, Sigma) and LDL cholesterol (EZLDL kit, Sigma). As shown in FIGS. 5a–c, all compounds tested show significant reduction in total and LDL cholesterol levels and a significant increase in HDL cholesterol levels compared to high fat fed control animals.

[3] = system: THP-1 cells differentiated into macrophages; assay: Cholesterol efflux assay from macrophage foam cells; type: cell-based; conditions: 1 μM, 24 hr, with 10 μg/ml ApoA-I, compared to non treated cells, FIG. 4
Experimental: Cholesterol efflux from macrophage foam cells was assayed as described by Sparrow. et al, J. Biol. Chem.,2002, 277, 10021–10027, which is encorporated herein in its entirety by this reference. THP-1 cells obtained from ATCC (Manassas, VI), were cultured in RPMI medium (Sigma, St-Louis, Mo.), containing 10% fetal calf serum (Sigma, St-Louis, Mo.), 0.05 μM 2-mercaptoethanol, 1 mM sodium pyruvate, 2 mM L-glutamine, 100 units/ml penicillin, […] streptomycin and 0.25 μg/ml amphotericin B obtained from Sigma (St-Louis, Mo.). The THP-1 cells were differentiated into macrophages in 24 well tissue culture dishes at a density of 0.5 million cells/well by incubation in the same medium plus 100 nM tetradecanoyl phorbol acetate (Sigma, St-Louis, Mo.), for 3 days.
After differentiation into macrophages, the cells were tested for cholesterol efflux as induced by compound 2 of the invention. Cells were labeled by incubation for 24 hr in fresh growth medium containing [3 H]-cholesterol (10 μCi/ml) (PerkinElmer, Boston, Mass.), and 50 μg/ml acetylated-LDL (Frederick, Md.) and 1% Fetal bovine serum (Sigma, St-Louis, Mo.). […] Media were briefly centrifuged to remove non-adherent cells, and then aliquots of both the supernatant and the dissolved cells were counted by liquid scintillation spectrometry to determine radioactivity.
Cholesterol efflux is expressed as a percentage, calculated as […]

[4] = system: Mouse pre-adipocyte 3T3-L1 cells; assay: Differentiation of 3T3-L1 pre-adipocytes in an in vitro assay (lipid content); type: cell-based; conditions: 0.1 μM, 7 days; taken as reference
Experimental: The compounds of the invention have been screened in an in-vitro adipocyte differentiation assay, as described in Example 26. Mouse pre-adipocyte 3T3-L1 cells were treated with compounds at concentrations less than or equal to 10^−6 M for 7 days.
The compounds can be considered active for adipocyte differentiation if the lipid accumulation induced is at least about 20%, or at least about 40% of the lipid accumulation induced by 5-[3-(3,5,5,8,8-Pentamethyl-5,6,7,8-tetrahydro-naphthalen-2-yl)-4-trifluoromethoxy-benzylidene]-thiazolidine-2,4-dione when it is applied to control cultures of mouse preadipocyte 3T3-L1 cells at a concentration of about 1×10^−7 M.
The following protocol was used to determine adipocyte differentiation activity of the compounds of the invention: Mouse pre-adipocyte 3T3-L1 cells obtained from ATCC (American Tissue Culture Collection, MD) were initially grown in DME Dulbecco's modified Eagle's medium containing 4500 mg/L glucose; 4 mM L-glutamine; 10 U/ml Pen-G; 10 mcg/ml Streptomycin and 10% Bovine Calf Serum (CS) at 37° C. and 10% CO2. Cells were plated in 96 well plates at a density of approximately 3,000 cells/well and grown to confluence (when cells use 100% of the available space on the well) in the same medium. […] The cellular lysates were analyzed for their lipid content using the Triglyceride-GPO Trinder reagent from Sigma.

[5] = Oral bioavailability, single dose pharmacokinetic study in rats (plasma concentration by HPLC); type: in vivo, Sprague Dawley rats; conditions: rat, single oral dose 10 mg/kg in 10% HPβCD, 0.5–26 hours, FIG. 7
Excerpt: Oral bioavailability is an important pharmaceutical characteristic for a compound to advance through drug development. A basic assessment of the oral bioavailability of a compound can be done in a single dose pharmacokinetic study in wild type rats.
Six to eight week-old male Sprague Dawley rats (Harlan) were housed in a fixed 12–12- hr artificial light-dark cycle, and maintained on a standard rodent diet provided ad libitum. Animals were allowed two days to acclimate in this experimental environment prior to the initiation of the study. Compounds 24 and 25 were dissolved in a 10% hydroxypropyl beta cyclodextrin solution and administered by oral gavage in a final dose of 10 mg/kg in a volume of 5 ml/kg. Treatment groups were divided as follows:
Treatment groups(n=3/group): • 1) Compound 24 (10 mg/kg) • 2) Compound 25 (10 mg/kg)
Each animal received a single treatment, after which, the animal was bled from the tail vein at the following time points: 0.5, 1, 2, 4, 6, 9, 12, and 26 hours after treatment. To measure the concentration of each compound in plasma, blood samples were collected in heparin-coated tubes, and the plasma was isolated and analyzed by HPLC.

[6] = system: Mouse pre-adipocyte 3T3-L1 cells; conditions: stated as previously shown; cited from earlier work

SMILES: CCN1C(=O)CC(C)(C)c2cc(C)c(-c3cc(/C=C4\SC(=O)NC4=O)ccc3OC(F)(F)F)cc21 [Compound 2, 5-[3-(1-Ethyl-4,4,6-trimethyl-2-oxo-1,2,3,4-tetrahydro-quinolin-7-yl)-4-trifluoromethoxy-benzylidene]-thiazolidine-2,4-dione]
- serum glucose level [1]: decrease
- serum triglyceride level [1]: decrease
- HDL cholesterol [2]: increasing
- LDL cholesterol [2]: decrease
- total cholesterol [2]: decrease
- cholesterol efflux [3]: increases

SMILES: Cc1cc2c(cc1-c1cc(/C=C3\SC(=O)NC3=O)ccc1OC(F)(F)F)C(C)(C)CCC2(C)C [Compound 24, 5-[3-(3,5,5,8,8-Pentamethyl-5,6,7,8-tetrahydro-naphthalen-2-yl)-4-trifluoromethoxy-benzylidene]-thiazolidine-2,4-dione]
- differentiation of 3T3-L1 cells (lipid content), standard for differentiation activity [4]: 100%
- concentration of compound in plasma [5]: only detected as being present at near the limit of detection
- inducer of adipocyte differentiation [6]: potent inducer of adipocyte differentiation
